# Data taken from US20160193148A1, “LIPOSOMAL FORMULATIONS FOR THE TREATMENT OF BACTERIAL INFECTIONS” (UNIVERSITY OF GEORGIA RESEARCH FOUNDATION, INC., priority 2013, published 2016).
# Several values for one entry are separate records, joined by “and”; a condition that tells them apart may be missing. Identical values can stand only once. Like-named read-outs stand apart in the source and are kept apart here. Marks after values point to notes of the source that are not given here.
# Assays:
# [1] = simulation, Burton et al. 2013, cited from earlier work
# [2] = Plasma pharmacokinetics after single IV or nebulized dose in foals
# Method: (§1) Eight healthy 5-7-week-old Quarter Horse foals were randomly assigned to one of 4 groups using a balanced Latin-square design. Foals were considered healthy on the basis of physical examinations, complete blood cell counts and plasma biochemical profiles. […] The liposome gentamicin formulation was nebulized using Nortev FLEXINEB. For each treatment, gentamicin was administered over a period of 15 minutes. There was a washout period of 7-14 days between each treatment.
# (§2) For the BAL collection, foals were sedated with xylazine and butorphanol. Concentrations of gentamicin were measured in plasma and in bronchoalveolar cells using HPLC-MS.
# (§3) Eight foals received a single IV or nebulized dose (6.6 mg/kg bwt) of FG^h or LG in a balanced Latin square design. Beginning at 5-7 weeks of age, every foal received each of the 4 possible drug-route combinations with a 14-day washout period between each administration. Intravenous FG and LG were diluted in 250 ml of sterile 0.9% saline and administered via a jugular catheter as a constant rate infusion over 15 min. Nebulized FG and LG were administered by inhalation over 15 minutes via a commercial equine nebulizer. To ensure equivalent rate of delivery, FG was diluted to the same volume as LG with sterile 0.9% saline. Particle size of nebulized LG was verified using laser diffraction. Blood samples for plasma separation were obtained from a catheter placed in the contralateral jugular vein prior to each drug administration, and at 5, 10, 20, 30, 45 minutes and 1, 1.5, 2, 3, 4, 6, 8, 12, 16, 24 and 48 hours after the end of the 15 minute IV infusion or nebulization period. Bronchoalveolar lavage (BAL) fluid was collected at 2, 4, 8, 24, and 48 hours. Foals were sedated with xylazine hydrochloride (0.5 mg/kg bwt IV) and butorphanol tartrate (0.07 mg/kg bwt IV) prior to collection of BAL fluid. Prior to analysis for gentamicin concentration, blood samples were centrifuged at 400×g for 10 minutes and the resultant plasma frozen at −80° C. until assayed.
# Briefly, gentamicin was extracted from plasma (250 μl) and urine (500 μl) using protein precipitation with an equal volume of ice-cold 90:10 acetonitrile: 0.2% formic acid (v/v). Extracted samples were centrifuged (2° C. at 10,000×g for 10 min) twice. Two-hundred microliters of the supernatants were transferred to polypropylene inserts for injection. The supernatant derived from the lyzed BAL cell pellet was transferred to polypropylene inserts for direct injection without further processing. […] An aliquot of the resultant supernatant was then mixed with an equal volume of ice-cold acetonitrile, centrifuged (2° C. at 10,000×g for 10 minutes) and 200 μl was transferred to polypropylene inserts for injection. Calibration standards were prepared in drug-free foal plasma, BAL fluid or urine and then extracted as described above so that standard curves specific to each biologic matrix could be constructed. […] Analyte separation and LC-MS/MS measurement of gentamicin were performed exactly as described previously (Burton et al. (2013) Equine Vet J. 45, 507-511) except that BAL fluid samples, were introduced in the MS with a flow rate of 0.18 ml/minutes and a total run time of 8 minutes due to relatively low gentamicin concentration in those samples.
# For each foal, plasma, PELF, and BAL cell concentration versus time data were analyzed using commercial software. Noncompartmental analysis was used for PELF and BAL cell data.
# [3] = PELF gentamicin concentrations after single IV or nebulized dose in foals
# Method: as §1, §2, §3
# A 10 mm diameter, 2.4 m BAL catheter^k was passed via nasal approach until wedged into a bronchus. The lavage solution consisted of 4 aliquots of 60 ml 0.9% saline solution infused and instantly aspirated. Immediately upon collection, the total volume of BAL fluid recovered was measured and a 3 ml aliquot saved in an EDTA tube from which total nucleated cell count was determined by use of a cell counter.^1 BAL fluid was immediately centrifuged at 400×g for 10 min. The BAL cells in the resultant pellet were washed, re-suspended in 500 μl of acetonitrile: 0.2% formic acid (1:1, v/v), vortexed, and frozen at −80° C. until assayed. Supernatant BAL fluid was also frozen at −80° C. until assayed. Before assaying, the cell pellet samples were thawed, vortexed vigorously and sonicated for 10 minutes to ensure complete cell lysis. The resulting suspension was centrifuged at 500×g for 10 minutes and the supernatant fluid was used to determine the intracellular concentrations of gentamicin.
# Briefly, gentamicin was extracted from plasma (250 μl) and urine (500 μl) using protein precipitation with an equal volume of ice-cold 90:10 acetonitrile: 0.2% formic acid (v/v). Extracted samples were centrifuged (2° C. at 10,000×g for 10 min) twice. Two-hundred microliters of the supernatants were transferred to polypropylene inserts for injection. The supernatant derived from the lyzed BAL cell pellet was transferred to polypropylene inserts for direct injection without further processing. […] An aliquot of the resultant supernatant was then mixed with an equal volume of ice-cold acetonitrile, centrifuged (2° C. at 10,000×g for 10 minutes) and 200 μl was transferred to polypropylene inserts for injection. Calibration standards were prepared in drug-free foal plasma, BAL fluid or urine and then extracted as described above so that standard curves specific to each biologic matrix could be constructed.
# R. equi isolates = details: Riesenberg et al. 2013; cited from earlier work
# [4] = plasma, IV 6.6 mg/kg, 8 foals, Table 4
# [5] = plasma, IV 6.6 mg/kg, 8 foals, listed as FG, 6.6 mg/kg
substance,measurement,setting,value
gentamicin sulfate [Free Gentamicin],predicted plasma concentration 1 hour after IV administration,[1]; at 4 weeks of age,25.27 ± 9.52 µg/mL
same,predicted plasma concentration 24 hours after administration,[1]; at 4 weeks of age,0.20 ± 0.22 µg/mL
same,predicted plasma concentration 1 hour after IV administration,[1]; at 12 weeks of age,34.52 ± 14.11 µg/mL
same,predicted plasma concentration 24 hours after administration,[1]; at 12 weeks of age,0.26 ± 0.11 µg/mL
same,Plasma concentrations after nebulized administration,"[2]; nebulized 6.6 mg/kg, at most time points",570 ng/mL
same,A (intercept of the distribution phase),"[2]; plasma, IV 6.6 mg/kg, 8 foals",53.24 ± 25.83 µg/mL
same,AUC0-t,"[2]; plasma, IV 6.6 mg/kg, 8 foals",96700 ± 63800 ng·h/mL
same,AUC0-∞,"[2]; plasma, IV 6.6 mg/kg, 8 foals",98400 ± 64300 ng·h/mL
same,AUMC0-∞,"[2]; plasma, IV 6.6 mg/kg, 8 foals",360.2 ± 364.0 μg · h^2/ml
same,B (intercept of the elimination phase),"[2]; plasma, IV 6.6 mg/kg, 8 foals",2.50 ± 1.50 µg/mL
same,CL,"[2]; plasma, IV 6.6 mg/kg, 8 foals",1.42 ± 0.615 mL/min/kg
same,MRT,"[2]; plasma, IV 6.6 mg/kg, 8 foals",3.18 ± 1.25 h
same,t1/2α (distribution half-life),"[2]; plasma, IV 6.6 mg/kg, 8 foals",0.97 ± 0.45
same,α (rate constant of the distribution phase),"[2]; plasma, IV 6.6 mg/kg, 8 foals",0.82 ± 0.28 h⁻¹
same,β (rate constant of the elimination phase),"[2]; plasma, IV 6.6 mg/kg, 8 foals",0.12 ± 0.04 h⁻¹
same,C0.5 h,[2]; [4],71780 ± 92140 ng/mL
same,C48 h,[2]; [4],90 ± 90 ng/mL
same,t1/2β,"[2]; plasma, IV 6.6 mg/kg, 8 foals, Table 4, listed as FG, 6.6 mg/kg",6.2 ± 1.8 h and 6.20 ± 1.77 h
same,C1 h,[2]; [5],32600 ± 25280 ng/mL
same,C24 h,[2]; [5],250 ± 190 ng/mL
same,C0.5 h,"[2]; plasma, IV 6.6 mg/kg, Table 1",71800 ± 92100 ng/mL
same,C48 h,"[2]; plasma, IV 6.6 mg/kg, Table 1",100 ± 90 ng/mL
same,t1/2β,"[2]; plasma, IV 6.6 mg/kg, Table 1, 6.6 mg/kg",6.2 ± 1.8 h
same,t1/2β,"[2]; plasma, IV 6.6 mg/kg, Table 1, listed as free gentamicin, 6.6 mg/kg",6.2 ± 1.8 h
same,AUC0-t,[3]; IV,44.66 ± 20.96^a μg · h/ml
same,C24 h,[3]; IV,840 ± 640 ng/mL
same,Tmax (median and range),[3]; IV,6 (4-8) h
same,AUC0-24,"[3]; IV, Table 2",44800 ± 21000 ng·h/mL
same,C48 h,"[3]; IV, Table 2",840 ± 640 ng/mL
same,Cmax,"[3]; IV, Table 2",4.6 ± 1.9 µg/mL
same,Cmax,"[3]; IV, Table 5",4.64 ± 1.99^a μg/ml
same,AUC0-24,"[3]; N (nebulized), Table 2",41000 ± 15800 ng·h/mL
same,C48 h,"[3]; N (nebulized), Table 2",350 ± 340 ng/mL
same,Cmax,"[3]; N (nebulized), Table 2",13.0 ± 6.7 µg/mL
same,AUC0-t,[3]; Neb,40.97 ± 15.81^a μg · h/ml
same,C24 h,[3]; Neb,350 ± 340 ng/mL
same,Tmax (median and range),[3]; Neb,2 (2-2) h
same,Cmax,"[3]; Neb, Table 5",13.02 ± 6.70^c μg/ml
same,MIC that inhibits at least 90% (MIC90) of R. equi isolates,R. equi isolates,0.5 µg/mL
